Read-outs that look alike come from different tables or passages of the source.
How the values were obtained:
[1] = tested on: JAK/STAT signaling (JAK1, JAK3, and TYK2 dependent); experiment: Whole blood IL-2, IL-4, IL-6 stimulated STAT phosphorylation after oral dosing; type: cell-based, human; conditions: for IC50: Homo sapiens
Protocol: For PD assessments, serial blood samples were drawn into lithium-heparin vacutainer tubes on Day 1 prior to dosing and again at 0.5, 1, 2, and 4 hours post-dose; on Day 8 at pre-dose and 2 hours post-dose; and Day 28 prior to dosing. Multiple assays were performed using the Day 1 and Day 8 PD samples. SYK-mediated BCR signaling in whole blood was measured prior to and post-dosing by stimulating 100 μL whole blood with 2 μL of anti-human IgD (IgG fraction) and 10 μg anti-human IgM for 10 minutes at 37° C., measuring the induction of pSYK Y525/526, pAKT S473, and pERK Y204. Similarly, whole blood was stimulated with 10 ng/mL of IL-2 (JAK1/3-dependent), IL-4 (JAK1/3-dependent), IL-6 (JAK1/TYK2-dependent) or GM-CSF (JAK2-dependent) for 20 minutes, measuring the induction of pSTAT5 Y694 in T-cells and NK cells, the induction of pSTAT6 Y641 in B cells, T-cells, NK cells, and monocytes, the induction of pSTAT3 Y705 in monocytes, B cells, and T-cells, and the induction of pSTAT5 Y694 in monocytes, respectively. The technical details for these assays were described in Coffey, G., et al., J Pharmacol Exp Ther, 2014. 351(3): p. 538-48. With blood samples from the CLL patients only, tumor cell surface expression of CD5, CD69, CD86, and CXCR4 pre-dose on days 1 and 28 were monitored. The recommended volume of antibodies were applied directly to 100 μL whole blood and incubated for 1 hour at room temperature. Afterwards, 4 mL of BD Lyse/Fix reagent was added to the blood to lyse red blood cells and fix the remaining leukocytes, followed by washing and FACS analysis. For each assay, data were collected using an LSR II instrument (BD Bioscience, San Jose, Calif.) and analyzed using Flowjo software (Flowjo LLC, Ashland, Oreg.). […]
The data were analyzed using the statistical language R and the accessory packages ggplot2 (Wickham, H., Elegant Graphics for Data Analysis. 2016: Springer-Verlag) and drc (Ritz, C., et al., Dose-Response Analysis Using R. PLoS One, 2015. 10(12): p. e0146021). For cell signaling assays, percent inhibition was determined by normalizing the receptor-induced phosphorylation events mean fluorescent intensity (MFI) to that of pre-dose receptor-induced MFI. The resulting relative activities were analyzed by nonlinear regression to a 3-parameter log-logistic function with an upper and lower limit set at 100 and 0%. […] Statistically significant differences between the healthy and patient serum marker at all cycles (Cycle 1 Day 1, Cycle 1 Day 8, and Cycle 2 Day 1) were detected by paired t test. […] The significance of the relation between maximum tumor response and change in a specific biomarker was evaluated using Spearman-Rank-correlation and p value.

[2] = tested on: JAK2-dependent STAT5 phosphorylation; experiment: Whole blood GM-CSF stimulation, STAT5 phosphorylation; type: cell-based, human; conditions: patient samples
Protocol: For PD assessments, serial blood samples were drawn into lithium-heparin vacutainer tubes on Day 1 prior to dosing and again at 0.5, 1, 2, and 4 hours post-dose; on Day 8 at pre-dose and 2 hours post-dose; and Day 28 prior to dosing. Multiple assays were performed using the Day 1 and Day 8 PD samples. SYK-mediated BCR signaling in whole blood was measured prior to and post-dosing by stimulating 100 μL whole blood with 2 μL of anti-human IgD (IgG fraction) and 10 μg anti-human IgM for 10 minutes at 37° C., measuring the induction of pSYK Y525/526, pAKT S473, and pERK Y204. […] With blood samples from the CLL patients only, tumor cell surface expression of CD5, CD69, CD86, and CXCR4 pre-dose on days 1 and 28 were monitored. […] For each assay, data were collected using an LSR II instrument (BD Bioscience, San Jose, Calif.) and analyzed using Flowjo software (Flowjo LLC, Ashland, Oreg.). […]
(§1) The potency and selectivity for target inhibition following oral dosing in patients using a variety of whole blood assays was measured.

[3] = tested on: PMA-mediated B cell pERK Y204; experiment: PMA-mediated B cell pERK Y204; type: cell-based, human; conditions: patient samples
Protocol: as §1

[4] = Blood absolute lymphocyte counts (ALC); type: in vivo, human; conditions: 5 CLL/SLL patients
From the text: Treatment-related increases in blood absolute lymphocyte counts (ALC) occurred in both CLL/SLL and FL patients (FIG. 6A and FIG. 6B). Of the 6 CLL/SLL patients treated with cerdulatinib, 5 remained on drug long enough to monitor ALC, which were elevated 0.3-10 fold relative to pre-treatment. For two of these patients, treatment-related changes in tumor cell surface activation and homing markers were additionally evaluated (FIG. 7A and FIG. 7B). As shown in the ALC plots over time (FIG. 6A and FIG. 6B), by the beginning of the second cycle of treatment (Cycle 2 Day 1; C2D1) there was considerable mobilization of tumor cells into the peripheral blood.

[5] = tested on: Follicular lymphoma (FL) cell lines SU-DHL6, DOHH2, WSU-FSCCL; experiment: FL cell line assays (CellTiter Glo, Edu, caspase 3, immunoblot, phosphoflow); type: cell-based, human
Protocol: CellTiter Glo, Edu and caspase 3 assays were used to examine the effects of cerdulatinib alone and in combination with venetoclax. Percent inhibition was determined relative to vehicle control. Edu incorporation and caspase 3 cleavage were performed using FACS-based assays and CellTiter Glo in a 96-well black plate.
Follicular lymphoma (FL) cell lines SU-DHL6, DOHH2, or WSU-FSCCL were treated with cerdulatinib in the presence or absence of venetoclax at the indicated concentrations for 24-72 hours and analyzed by Edu, CellTiter-Glo, Annexin V/PI, and CellTiter-Glo).
Whole cell lysates were subjected to immunoblotting on 12% gels and probed with the indicated antibodies using established protocols. Phosphoflow cytometry was performed on an LSRII following cell fixing in 4% PFA and permeabilzation with 50% methanol. Phospho-antibody staining was performed for 1 hour at room temperature.

[6] = tested on: Primary CLL cells; experiment: Primary CLL cells with IL-4/CD40L, immunoblotting and annexin V/PI viability; type: cell-based, human
Protocol: Combination studies were performed with 10 or 100 nM venetoclax or 300 and 1000 nM S63846. Cell viability was assessed by annexin V/PI using flow cytometry and changes in protein expression by immunoblotting.

[7] = tested on: xenograft; experiment: Xenograft studies with rituximab; type: in vivo
[8] = tested on: patients with relapsed/refractory Follicular Lymphoma; conditions: r/r FL, single agent; cited from earlier work

SMILES: CCS(=O)(=O)N1CCN(c2ccc(Nc3ncc(C(N)=O)c(NC4CC4)n3)cc2)CC1 [cerdulatinib, 4-(cyclopropylamino)-2-((4-(4-(ethylsulfonyl)piperazin-1-yl)phenyl)amino)pyrimidine-5-carboxamide]
- IC50 ([1]; B-cell, B cells, patients, read-out: average IC50, IL-4 signaling (pSTAT6 Y641)): 1080 nM
- IC50 ([1]; B-cell, B cells, patients, read-out: average IC50, IL-6 signaling (pSTAT3 Y705)): 220 nM
- IC50 ([1]; po, depending on the cell lineage, whole blood, read-out: IC50, measures of JAK/STAT signaling): 190 to 1110 nM
- inhibition of IL-2, IL-4, and IL-6 signaling ([1]; concentration-dependent): potently inhibited
- inhibition of GM-CSF induced JAK2-dependent STAT5 phosphorylation [2]: sparing JAK2
- inhibition of PMA-mediated B cell pERK Y204 [3]: No inhibition
- ALC elevation relative to pre-treatment [4]: 0.3-10 fold
- basal expression of phospho (p)AKT and pERK, anti-IgM and anti-IgG mediated signaling ([5]; FL cell lines): inhibit
- Bcl-2 expression ([5]; FL lines): minimal impact
- Bim RNA level ([5]; WSU and DHL6 cells): increased
- Mcl-1 RNA levels ([5]; cerdulatinib alone): remained unchanged
- Mcl-1 expression ([5]; most pronounced in WSU-FSCCL cells): down modulation
- IL-4/CD40L induced Mcl-1 and Bcl-XL expression ([6]; 1 μM): significantly reduced
- inhibition of Mcl-1 and Bcl-XL compared to the other kinase inhibitors ([6]; 1 μM): more robust inhibition
- synergy with venetoclax to induce apoptosis ([6]; CLL cells): synergized
- Bim induction compared to idelalisib and ibrutinib ([6]; equivalent drug concentrations): induced to greater levels
- effect on the anti-tumor activity of rituximab [7]: does not interfere
- ORR, previously reported [8]: ~45%

From patent publication US11266645B2, “Methods for treating lymphoma” (Alexion Pharmaceuticals, Inc., priority 2018, dated 2022)
